Measurements: patent US11980609B2, “LPA receptor antagonists and uses thereof” (Gilead Sciences, Inc., priority 2021, dated 2024)

Molecular target: T1, human LPAR1 (Homo sapiens, UniProt Q92633)
T1 construct: host or cells: CHO-K1
Assay: LPAR1 intracellular calcium mobilization assay (antagonist mode)
Type: cell-based
Conditions: CHO-K1 EDG2 cells expressing human LPAR1; 60 min pre-incubation with compound (0.5 nM to 10 μM), then LPA 18:2 challenge; FLIPR Tetra calcium signal
Method: In vitro LPAR1 activity was measured in an intracellular calcium mobilization assay.
CHO-K1 EDG2 cells (DiscoverX cat #93-0644C2) expressing human LPAR1 (NM_001401.3) were seeded in a total volume of 25 μL of Dulbecco's Modification of Eagle's Medium (DMEM) with 10% Fetal Bovine Serum, 1× PenStrepGlutamine, 300 μg/ml Hygromycin, and 800 μg/ml G418 into 384-well tissue culture plate (Grenier #781091) at 15,000 cells/well and incubated at 37° C. overnight. Prior to testing, 25 μL Calcium Loading Dye Component A (FLIPR Calcium 6 Assay Kit Molecular Device #R8190) and 2.5 mM Probenecid (Invitrogen #P36400, prepared fresh) in Hank's Balanced Salt Solution (Corning #21-023-CV), 20 mM HEPES (Corning #25-060-CI), 0.1% Bovine Serum Albumin (Sigma-Aldrich #A7906-500G) was add to the cells for 60 minutes at 37° C.
Agonist dose curves of LPA 18:2 (Avanti Polar Lipids cat #857138, 0.5 nM to 10 μM) were recorded to determine the LPA 18:2 EC80 for subsequent antagonist assays. For agonist dose curves, cells were removed from the incubator 2 hours after dye loading and transferred to the FLIPR Tetra instrument (Molecular Devices, San Jose, CA). Calcium mobilization was monitored for 5 min and 10 μL 6×LPA in HBSS/20 mM Hepes/0.1% bovine serum albumin (BSA) was added to the cells 5 seconds into the assay.
To determine the LPAR1 antagonist activity of test compounds, cells were pre-incubated with test compound at a dose range of 0.5 nM to 10 μM, followed by LPA at […] concentration (100 nM). After dye loading, cells were removed from the incubator and 0.3 μL of 200× antagonist was added. Cells were incubated for 60 minutes at 37° C. Antagonist activity was measured on a FLIPR Tetra. Calcium mobilization was monitored for 3.5 minutes and 10 μL 6×EC80 LPA in HBSS, 20 mM HEPES, and 0.1% BSA was added to the cells 5 seconds into the assay. Signal amplitude (Maximum minus minimum) values were plotted against log10 of antagonist concentration using Dose Response Tool (Gilead Sciences Inc.) to determine EC50.
To assess the antagonistic potential of exemplified compounds EC50 values were determined for Compounds 1 to 55 in the LPAR1 calcium mobilization assay. The compound numbers correspond to the compound numbers in Examples 1 to 35. N/A=not available.

T1 sequence (Q92633 whole entry): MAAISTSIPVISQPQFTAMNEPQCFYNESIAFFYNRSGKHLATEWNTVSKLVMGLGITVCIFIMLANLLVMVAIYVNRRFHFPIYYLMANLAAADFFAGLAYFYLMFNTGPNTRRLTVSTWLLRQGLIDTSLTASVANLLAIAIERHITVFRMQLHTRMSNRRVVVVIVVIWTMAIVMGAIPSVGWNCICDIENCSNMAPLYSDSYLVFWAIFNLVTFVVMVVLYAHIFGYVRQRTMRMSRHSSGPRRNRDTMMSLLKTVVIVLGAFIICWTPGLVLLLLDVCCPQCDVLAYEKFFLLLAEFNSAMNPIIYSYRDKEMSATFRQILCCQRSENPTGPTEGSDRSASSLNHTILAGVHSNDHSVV

EC50: 60.5 nM
SMILES: C[C@@H](OC(=O)Nc1c(-c2ncc(NC(=O)C3(C(F)F)CC3)cn2)cnn1C)c1cc(F)cnc1Cl [Compound 25, (R)-1-(2-chloro-5-fluoropyridin-3-yl)ethyl (4-(5-(1-(difluoromethyl)cyclopropane-1-carboxamido)pyrimidin-2-yl)-1-methyl-1H-pyrazol-5-yl)carbamate]
